Data from patent publication US20060069132A1, “Azolecarboxamide herbicides” (priority 2004, published 2006).

Key:
barnyardgrass [1] = assay: Test A pre-/postemergence herbicide test; type: in vivo, Echinochloa crus-galli
Procedure, shortened: (§1)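 Pre: seeded sandy loam, directed soil spray, compound in non-phytotoxic solvent + surfactant. Post: 1–2-leaf plants (2–10 cm), sprayed to runoff. Greenhouse ~10 d; visual injury vs untreated, 0–100 scale.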

large crabgrass [2] = assay: Test A pre-/postemergence herbicide test; type: in vivo, Digitaria sanguinalis
Procedure, shortened: as §1

giant foxtail [3] = assay: Test A pre-/postemergence herbicide test; type: in vivo, Setaria faberi
Procedure, shortened: as §1

morningglory [4] = assay: Test A pre-/postemergence herbicide test; type: in vivo, Ipomoea spp.
Procedure, shortened: as §1

redroot pigweed = assay: Test A pre-/postemergence herbicide test; type: in vivo, Amaranthus retroflexus
Procedure, shortened: as §1

velvetleaf [5] = assay: Test A pre-/postemergence herbicide test; type: in vivo, Abutilon theophrasti
Procedure, shortened: as §1

barnyardgrass [6] = assay: Test B pre-/postemergence herbicide test; type: in vivo, Echinochloa crus-galli; conditions: for Barnyardgrass plant response rating: postemergence, visual rating, scale 0 (no effect) to 100 (complete control)
Procedure, shortened: (§2)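 Evaluation is visual, comparing treated with control plants on a scale where 0 means no effect and 100 means full control. Treatments were preemergence, or postemergence on seedlings 2–18 cm tall, and held 13–15 days in the greenhouse.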

Surinam grass = assay: Test B pre-/postemergence herbicide test; type: in vivo, Urochloa decumbens; conditions: for Surinam Grass plant response rating: postemergence, visual rating, scale 0 (no effect) to 100 (complete control)
Procedure, shortened: (§3)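 Herbicidal effect was judged by eye on a 0–100 scale after plants stood 13 to 15 days in the greenhouse following pre- or postemergence treatment with surfactant-containing formulations.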

cocklebur = assay: Test B pre-/postemergence herbicide test; type: in vivo, Xanthium strumarium; conditions: for Cocklebur plant response rating: postemergence, visual rating, scale 0 (no effect) to 100 (complete control)
Procedure, shortened: as §2

corn = assay: Test B pre-/postemergence herbicide test; type: in vivo, Zea mays; conditions: for Corn plant response rating: postemergence, visual rating, scale 0 (no effect) to 100 (complete control)
Procedure, shortened: as §3

large crabgrass [7] = assay: Test B pre-/postemergence herbicide test; type: in vivo, Digitaria sanguinalis; conditions: for Crabgrass, Large plant response rating: postemergence, visual rating, scale 0 (no effect) to 100 (complete control)
Procedure, shortened: as §3

giant foxtail [8] = assay: Test B pre-/postemergence herbicide test; type: in vivo, Setaria faberi; conditions: for Foxtail, Giant plant response rating: postemergence, visual rating, scale 0 (no effect) to 100 (complete control)
Procedure, shortened: as §3

lambsquarters = assay: Test B pre-/postemergence herbicide test; type: in vivo, Chenopodium album; conditions: for Lambsquarters plant response rating: postemergence, visual rating, scale 0 (no effect) to 100 (complete control)
Procedure, shortened: as §3

morningglory [9] = assay: Test B pre-/postemergence herbicide test; type: in vivo, Ipomoea coccinea; conditions: for Morningglory plant response rating: postemergence, visual rating, scale 0 (no effect) to 100 (complete control)
Procedure, shortened: as §2

pigweed = assay: Test B pre-/postemergence herbicide test; type: in vivo, Amaranthus retroflexus; conditions: for Pigweed plant response rating: postemergence, visual rating, scale 0 (no effect) to 100 (complete control)
Procedure, shortened: as §3

rice [10] = assay: Test B pre-/postemergence herbicide test; type: in vivo, Oryza sativa; conditions: preemergence
Procedure, shortened: as §3

velvetleaf [11] = assay: Test B pre-/postemergence herbicide test; type: in vivo, Abutilon theophrasti; conditions: for Velvetleaf plant response rating: postemergence, visual rating, scale 0 (no effect) to 100 (complete control)
Procedure, shortened: as §3

blackgrass = assay: Test B postemergence herbicide test; type: in vivo, Alopecurus myosuroides; conditions: postemergence, visual rating, scale 0 (no effect) to 100 (complete control)
Procedure, shortened: (§4)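 Each value is a visual 0–100 response rating taken against controls 13 to 15 days after treatment in the greenhouse. Plants received formulated chemical postemergence at the 1- to 4-leaf stage or, in flooded paddy, at the 2-leaf stage.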

wheat = assay: Test B postemergence herbicide test; type: in vivo, Triticum aestivum; set-up: key to Wheat plant response rating: 0 = no effect, 100 = complete control; conditions: postemergence, visual rating, scale 0 (no effect) to 100 (complete control)
Procedure, shortened: (§5)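 Postemergence plants were sprayed with formulated test chemicals at 2 to 18 cm height (1- to 4-leaf stage); paddy species were grown to the 2-leaf stage. After 13 to 15 days in a greenhouse, injury was rated visually against untreated controls on a 0–100 scale (0 = no effect, 100 = complete control).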

wild oat = assay: Test B postemergence herbicide test; type: in vivo, Avena fatua; conditions: postemergence, visual rating, scale 0 (no effect) to 100 (complete control)
Procedure, shortened: as §5

rice [12] = assay: Test B flooded paddy test; type: in vivo, Oryza sativa; conditions: 1000 g ai/ha, visual rating, scale 0 to 100 (0 no effect, 100 complete control), 13 to 15 days
Procedure, shortened: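 Treated at 2-leaf (paddy) or 1–4-leaf, 2–18 cm (postemergence); greenhouse 13–15 d; visual score vs control, 0 none to 100 complete control; dash = not tested.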

[13] = system: small flower umbrella sedge; assay: Test B flooded paddy test; type: in vivo, Cyperus difformis; conditions: 1000 g ai/ha, visual rating, scale 0 to 100 (0 no effect, 100 complete control), 13 to 15 days
Procedure, shortened: as §4

ducksalad = assay: Test B flooded paddy test; type: in vivo, Heteranthera limosa; conditions: 1000 g ai/ha, visual rating, scale 0 to 100 (0 no effect, 100 complete control), 13 to 15 days
Procedure, shortened: as §4

barnyardgrass [14] = assay: Test B flooded paddy test; type: in vivo, Echinochloa crus-galli; conditions: 1000 g ai/ha, visual rating, scale 0 to 100 (0 no effect, 100 complete control), 13 to 15 days
Procedure, shortened: as §4

[15] = Postemergence, 500 g ai/ha, 0 to 100 scale, 0 no effect, 100 complete control
[16] = Postemergence, 2000 g ai/ha, 0 to 100 scale, 0 no effect, 100 complete control
[17] = Preemergence, 2000 g ai/ha, visual rating, 0 to 100 scale (0 no effect, 100 complete control)
[18] = preemergence, 500 g ai/ha, visual injury, 0 to 100 scale (0 no effect, 100 complete control)
[19] = 125 g ai/ha, 0 = no effect, 100 = complete control, preemergence
[20] = 500 g ai/ha, visual rating 0-100, 0 no effect, 100 complete control, preemergence

## Cc1nc(C(C)(C)C)sc1C(=O)Nc1cccc(C(=O)NCCF)c1 [Compound 200]
Barnyardgrass [1]; [15]
  Barnyardgrass plant response rating: 10
Barnyardgrass [1]; [16]
  Plant response rating, Barnyardgrass: 35
Barnyardgrass [1]; [17]
  Barnyardgrass plant response rating: 45
Barnyardgrass [1]; [18]
  Barnyardgrass plant response rating: 35
Large crabgrass [2]; [15]
  Crabgrass, Large plant response rating: 10
Large crabgrass [2]; [16]
  Plant response rating, Crabgrass, Large: 25
Large crabgrass [2]; [17]
  Crabgrass, Large plant response rating: 75
Large crabgrass [2]; [18]
  Crabgrass, Large plant response rating: 70
Giant foxtail [3]; [15]
  Foxtail, Giant plant response rating: 0
Giant foxtail [3]; [16]
  Plant response rating, Foxtail, Giant: 20
Giant foxtail [3]; [17]
  Foxtail, Giant plant response rating: 60
Giant foxtail [3]; [18]
  Foxtail, Giant plant response rating: 35
Morningglory [4]; [15]
  Morningglory plant response rating: 35
Morningglory [4]; [16]
  Plant response rating, Morningglory: 45
Morningglory [4]; [17]
  Morningglory plant response rating: 60
Morningglory [4]; [18]
  Morningglory plant response rating: 15
Redroot pigweed; [15]
  Pigweed plant response rating: 50
Redroot pigweed; [16]
  Plant response rating, Pigweed: 60
Redroot pigweed; [17]
  Pigweed plant response rating: 95
Redroot pigweed; [18]
  Pigweed plant response rating: 80
Velvetleaf [5]; [15]
  Velvetleaf plant response rating: 10
Velvetleaf [5]; [16]
  Plant response rating, Velvetleaf: 10
Velvetleaf [5]; [17]
  Velvetleaf plant response rating: 35
Velvetleaf [5]; [18]
  Velvetleaf plant response rating: 20
Barnyardgrass [6]; [19]
  Barnyardgrass plant response rating (0 to 100 scale): 0
Barnyardgrass [6]; [20]
  Plant response rating, Barnyardgrass: 20
Barnyardgrass [6]; 125 g ai/ha
  Barnyardgrass plant response rating: 0
Barnyardgrass [6]; 500 g ai/ha
  Barnyardgrass plant response rating: 10
Surinam grass; [19]
  Surinam Grass plant response rating (0 to 100 scale): 0
Surinam grass; [20]
  Plant response rating, Surinam Grass: 10
Surinam grass; 125 g ai/ha
  Surinam Grass plant response rating: 10
Surinam grass; 500 g ai/ha
  Surinam Grass plant response rating: 20
cocklebur; [19]
  Cocklebur plant response rating (0 to 100 scale): 0
cocklebur; [20]
  Plant response rating, Cocklebur: 0
cocklebur; 125 g ai/ha
  Cocklebur plant response rating: 10
cocklebur; 500 g ai/ha
  Cocklebur plant response rating: 20
corn; [19]
  Corn plant response rating (0 to 100 scale): 0
corn; [20]
  Plant response rating, Corn: 0
corn; 125 g ai/ha
  Corn plant response rating: 10
corn; 500 g ai/ha
  Corn plant response rating: 30
Large crabgrass [7]; [19]
  Crabgrass, Large plant response rating (0 to 100 scale): 50
Large crabgrass [7]; [20]
  Plant response rating, Crabgrass, Large: 90
Large crabgrass [7]; 125 g ai/ha
  Crabgrass, Large plant response rating: 0
Large crabgrass [7]; 500 g ai/ha
  Crabgrass, Large plant response rating: 10
Giant foxtail [8]; [19]
  Foxtail, Giant plant response rating (0 to 100 scale): 0
Giant foxtail [8]; [20]
  Plant response rating, Foxtail, Giant: 10
Giant foxtail [8]; 125 g ai/ha
  Foxtail, Giant plant response rating: 10
Giant foxtail [8]; 500 g ai/ha
  Foxtail, Giant plant response rating: 10
lambsquarters; [19]
  Lambsquarters plant response rating (0 to 100 scale): 20
lambsquarters; [20]
  Plant response rating, Lambsquarters: 80
lambsquarters; 125 g ai/ha
  Lambsquarters plant response rating: 60
lambsquarters; 500 g ai/ha
  Lambsquarters plant response rating: 60
Morningglory [9]; [19]
  Morningglory plant response rating (0 to 100 scale): 0
Morningglory [9]; [20]
  Plant response rating, Morningglory: 10
Morningglory [9]; 125 g ai/ha
  Morningglory plant response rating: 0
Morningglory [9]; 500 g ai/ha
  Morningglory plant response rating: 40
pigweed; [19]
  Pigweed plant response rating (0 to 100 scale): 10
pigweed; [20]
  Plant response rating, Pigweed: 90
pigweed; 125 g ai/ha
  Pigweed plant response rating: 10
pigweed; 500 g ai/ha
  Pigweed plant response rating: 40
Rice [10]; 125 g ai/ha, 0 = no effect, 100 = complete control
  Rice plant response rating (0 to 100 scale): 0
Rice [10]; 500 g ai/ha, visual rating 0-100, 0 no effect, 100 complete control
  Plant response rating, Rice: 10
Velvetleaf [11]; [19]
  Velvetleaf plant response rating (0 to 100 scale): 0
Velvetleaf [11]; [20]
  Plant response rating, Velvetleaf: 20
Velvetleaf [11]; 125 g ai/ha
  Velvetleaf plant response rating: 10
Velvetleaf [11]; 500 g ai/ha
  Velvetleaf plant response rating: 30
blackgrass; 125 g ai/ha
  Blackgrass plant response rating: 0
blackgrass; 500 g ai/ha
  Blackgrass plant response rating: 10
wheat; 125 g ai/ha
  Wheat plant response rating: 0
wheat; 500 g ai/ha
  Wheat plant response rating: 0
Wild oat; 125 g ai/ha
  Oat, Wild plant response rating: 0
Wild oat; 500 g ai/ha
  Oat, Wild plant response rating: 10
Rice [12]
  Rice plant response rating: 0
[13]
  Sedge, Umbrella plant response rating: 50
ducksalad
  Ducksalad plant response rating: 0
Barnyardgrass [14]
  Barnyardgrass plant response rating: 0
